Read-outs that look alike come from different tables or passages of the source.
Legend:
[1] = test system: HCT-116 colorectal cancer cell line; assay: Cell migration (wound healing) assay, HCT-116; type: cell-based, human; conditions: for Migration (%): slope 4-7 h relative to control, imipramine 20 μM, migrastatin 100 μM
Method: (§1) Except for SW-480, imipramine effect was more pronounced than migrastatin, especially for DLD-1. Cell migration was studied with the three cell lines by performing the wound healing assay in the presence of 5% FBS. Cancer colorectal cells (50,000 cells) were plated in low 35-mm-dishes with culture inserts (Ibidi, Martinsried, Germany). After appropriate cell attachment and monolayer formation (around for 24 h), inserts were then removed with sterile forceps to create a wound field of approximately 500 μm, according to the manufacturer protocol. Detached cells were gently removed with phosphate buffered saline (PBS, Dubelco) before the addition of drugs. Confluent cells were incubated in one of the following treatments: 100 μM migrastatin (AnalytiCon Discovery, cat. No. NP-006108), and 20 μM imipramine ((purchased via Molport, Letonia) and, control dishes that were incubated in the presence of 0.1% DMSO. Cells were then allowed to migrate in a cell culture incubator for 24 h. At 0, 3, 5 and 7 h (linear growth phase), 10 fields of the injury area were photographed with an inverted and phase contrast microscopy at ×10 magnification incorporating a CCD camera. For each timepoint, the area uncovered by cells was determined by an image processing free software analysis with Image J software program.
(§2) The migration speed of the wound closure is given as the percentage of the recovered area at each time point, relative to the initially covered area (0 h). The velocity of wound closure (%/h) was calculated according to the formula: Slope (%/h)=((% covered area t_x)−(% covered area t_0))/((tx−t_0)). Slopes are then expressed as percentages relative to control conditions.

HCT116 cells = assay: Transwell invasion assay on Matrigel; type: cell-based, human; conditions: 30 hours; migrastatin 100 μM, imipramine 20 μM
Method: Tumor cell invasion not only involved the acquisition of migration properties but also the ability to degrade the extracellular matrix (ECM). For that reason, we performed a Transwell assay on Matrigel which resembles the ECM composition. The invasive capacities of HCT116 cells were determined using Cytoselect TM 24 Well Cell Invasion Assay (Basement Membrane Colorimetric Format) with coated Transwell chambers (8 μm pore size). Briefly, cells were resuspended with serum-free medium and treated with corresponding inhibitors (migrastatin 100 μM and, imipramine 20 μM). Cells (9.5×10^4) were seeded into the upper chamber, and in the lower chamber 500 μL of DMEM containing 10% FBS were added. After 30 hours of incubation, cells that remained on the upper chamber were scraped away with a cotton swab, and cells that migrated to the bottom of the filter were stained with the cell stain solution. The number of invaded cells was photographed under an inverted phase contrast microscope and quantified D.O.D by a spectrophotometer at λ=560 nm. Also we analyzed the invasive cells using the Image J software. […] A) Invasiveness of cells after treatment with different drugs. Pictures were taken under an inverted phase contrast microscope. The magnification was ×200 and scale bars=50 μm. B) Quantification of the invasive cells D.O. by a spectrophotometer at A=560 nm. […]

[2] = test system: SW-480 colorectal cancer cell line; assay: Cell migration (wound healing) assay, SW-480; type: cell-based, human; conditions: for Migration (%): slope 4-7 h relative to control, imipramine 20 μM, migrastatin 100 μM
Method: as §1, §2

HCT116 cell line = assay: Immunofluorescence of fascin1 localization and lamellipodia formation; type: cell-based, human; conditions: for filopodia lamellipodium formation: 24 h, migrastatin 100 μM, imipramine 20 μM, PD98059 50 μM, EGF 10 ng/ml; for Lamellipodia protrusion number: data not shown
Method: In order to assess the effect of imipramine on fascin1 localization and lamelipodia formation an immunofluorescence assay was performed. Round coverslips (Thermo Fisher, Waltham, MA USA) were seeded with HCT116 cell line in the presence of 10% FBS. After cells reached 100% confluence, serum supplemented medium was removed and replaced with fresh serum free medium for 24 h. Artificial wounding was performed by transversally dragging a sterilized razor blade on the central area of the coverslips. Coverslips were then placed in 6-well plate with 2 mL serum free DMEM and 100 μM migrastatin, 20 μM imipramine, Epidermal Growth Factor (EGF) 10 ng/ml and MEK inhibitor PD98059 50 μM (MEKi) (both from Sigma-Aldrich, St Louis, MO, USA) for 24 h. Cells were then fixed with Bouin (for fascin1 protein) or 4% formaldehyde (for actin protein) and subsequently permeabilized in a 0.3% Triton X-100/PBS solution, and then exposed to blocking buffer for 30 min. Samples were incubated for 1 h with anti-fascin1 antibody (1/250) (55K-2 clone; Santa Cruz Biotechnology, Heidelberg, Germany) or anti-β actin antibody (1/1000) (Sigma-Aldrich, St Louis, MO, USA) in a wet chamber.
Appropriate fluorescent-labelled primary antibodies were incubated later with Alexa fluor 488-conjugated anti-mouse IgG (from donkey) (1/400) or Alexa fluor 594-labelled phalloidin, respectively (1/1000) (Molecular Probes, Thermo Fisher Scientific, Waltham, MA USA) and Hoechst 33258 (Fluka, Biochemika, Sigma-Aldrich, St Louis, MO, USA) for 30 min at room temperature and darkness. Samples were examined and representative images were taken with a confocal microscope (LSM 510 META from ZEISS, Jena, Germany). The effect of imipramine on the fascin1 localization and the reorganization of the actin cytoskeleton, which includes the protrusion of the lamellipodium at the cell front filopodia formation and fascin1 localization, was assessed by immunofluorescence.

[3] = test system: DLD1 colorectal cancer cell line; assay: Cell migration (wound healing) assay, DLD1; type: cell-based, human; conditions: for Migration (%): DLD1, slope 4-7 h relative to control, imipramine 20 μM, migrastatin 100 μM
Method: as §1, §2

fascin1 [4] = molecular target: T1, fascin1 (Homo sapiens, UniProt Q16658); assay: Differential Scanning Fluorimetry (Thermofluor) thermal shift assay; type: binding; conditions: for ΔTm at 1000 µM: vs free fascin1
T1 construct: purchased Hypermol, Bielefeld, Germany 8411-02
Method: Differential Scanning Fluorimetry (Thermofluor) assays were performed using a Biorad C1000 Touch Thermal Cycler CFX96 RT-PCR system in a 96-well format.
Imipramine was prepared at 10 mM in 100% DMSO and added to each well to a final concentration of 1 mM and 10% DMSO. Three replicates with six internal controls, containing only free protein in 10% DMSO, were included in the 96-well plates. The PCR plates were covered and subsequently shaken, centrifuged, incubated for 2 min at 20° C. inside the RT-PCR machine and heated from 20 to 100° C. at a 1° C./min scan-rate. Fascin1 thermal denaturation profiles were obtained recording the fluorescence intensity for the FAM, HEX and T-Red predefined filters. The derivative of the fluorescence curve was used to determine the Tm. Changes in Tm associated to ligand binding were estimated taking the average Tm value derived from the free protein internal controls.
[formula] Ff and Fb are the fluorescence signal (area or CM) of free and bound fascin1 and PT and LT are the total protein and ligand concentration, respectively, at each addition point. Tm values were measured as the minimum of the first derivative of the thermal unfolding profile.

fascin1 [5] = molecular target: T1, fascin1; assay: Fluorescence titration; type: binding; conditions: 25° C., 10% DMSO, 100 mM NaCl, 20 mM Hepes, pH 7.4; read-out: dissociation constant Kd
Method: Fascin1 was extensively dialized against the appropriate buffer prior to each titration experiment. Fascin1 concentration was determined by measuring absorbance at 280 nm using an extinction coefficient of 67840 cm-1-M-1. Fluorescence titration experiments were performed in a Cary Eclipse spectrofluorimeter (Varian Inc.). A 15 μM (14.7 μM) fascin1 solution was titrated with each compound by adding increasing volumes of concentrated solutions. Emission spectra were recorded between 307 and 500 nm at 25° C. in 10% DMSO, 100 mM NaCl, 20 mM Hepes, pH 7.4, with the excitation wavelength fixed at 280 nm. Binding isotherms were generated using either the changes in spectral area or in spectral centre of mass (CM), depending whether the change was only in fluorescence intensity or was also in the maximum emission wavelength.
The resulting curves were fitted using ORIGIN 7.0 (Microcal Inc.) and a one-site equilibrium binding model, according to the following equation:
[formula] Ff and Fb are the fluorescence signal (area or CM) of free and bound fascin1 and PT and LT are the total protein and ligand concentration, respectively, at each addition point. Tm values were measured as the minimum of the first derivative of the thermal unfolding profile. […]

[6] = test system: HCT-116 colorectal cell line; assay: Myoma organotypic invasion model; type: cell-based, human; conditions: HCT-116, 14 days, compared to control
Method: To improve the reliability of the experimental model compared to the real tumor microenvironment, cancer cell invasion was assessed in the myoma organotypic cultures and performed according to the previously published myoma model (Åström, P., Heljasvaara, R., Nyberg, P., Al-Samadi, A., & Salo, 2018). Briefly, uterine leiomyoma tissues were obtained from routine surgery after informed consent of the donors and their use approved by The Ethics Committee of the Oulu University Hospital. The myoma tissue was sliced into 5 mm and disks were made with an 8-mm biopsy punch (Kai Industries Co., Gifu, Japan). Myoma disks were pre-incubated in 100 μM MGS, 10 μM and 20 μM imipramine or 0.1% DMSO-DMEM treatments at +4° C. for 48 h. The myoma disks were placed into Transwell inserts (diameter 6.5 mm; Corning Incorporated, Corning, NY) and 700,000 cells in 50 μl of media were added on top of each myoma disk. The cells were allowed to attach overnight and the myoma disks were transferred onto uncoated nylon disks resting on curved steel grids in 12-well plates with 12 well plates with 1 ml of media plus migrastatin and imipramine in each well. The cancer cells were left to invade the myoma disks for 14 days, while changing the treatment media every 3 days. Subsequently the myoma discs were fixed with 4% neutral buffered formalin at room temperature for 24 h, and processed for histology. […]

[7] = test system: colorectal cancer cell lines (DLD-1 and HCT-116) injected in zebra fish; assay: Zebra fish larvae invasion model (xenograft); type: in vivo; conditions: DLD-1 and HCT-116 cells treated and injected in larvae
Method: Finally, in order to find out whether the anti-invasive properties of imipramine could be extrapolable to an animal system, the well-established zebra fish larvae invasion model was used. A xenograft assay was carried out by stained with fluorescent CM-Dil (Vibrant, Invitrogen) two colorectal cancer cell lines (DLD-1 and HCT-116) and injected in zebra fish. The result obtained is referred to the percentage of cell invasion.
Injection and migration of different colorectal cancer cell lines in zebra fish model (A). Two colorectal cancer cell lines (DLD-1 and HCT-166) were treated with migrastatin and imipramine and injected in zebra fish larvae.

CO[C@H]1/C=C/CC/C=C/C(=O)O[C@H]([C@H](C)C(=O)CCCC2CC(=O)NC(=O)C2)/C(C)=C\[C@@H](C)[C@@H]1O [migrastatin]
Migration (%) [1]: 44.59% | HCT-116 cell invasive ability (transwell) (HCT116 cells): inhibit tumor cell migration | Migration (%) [2]: 70.34% | filopodia lamellipodium formation (HCT116 cell line): absent | Lamellipodia protrusion number (HCT116 cell line): significantly lower | Migration (%) [3]: 67.91%

EGF: Epidermal Growth Factor (migration stimulator)
filopodia lamellipodium formation (HCT116 cell line): prominent filopodia lamellipodium formation

COc1cccc(-c2cc(=O)c3ccccc3o2)c1N [PD98059]
filopodia lamellipodium formation (HCT116 cell line): absent

CN(C)CCCN1c2ccccc2CCc2ccccc21 [imipramine, 3-(10,11-dihydro-5H-dibenzo[b,f]azepin-5-yl)-N,N-dimethylpropan-1-amine]
Tm, FAM (fascin1 [4]; 1 mM compound, 2 μM fascin1, FAM filter): 58.3 ± 0.6 °C | ΔTm at 1000 µM (fascin1 [4]; 1 mM compound, 2 μM fascin1, FAM filter, read-out: ΔTm, FAM): 2.7 ± 1.1 °C | Tm, HEX (fascin1 [4]; 1 mM compound, 2 μM fascin1, HEX filter): 58.0 ± 0.0 °C | ΔTm at 1000 µM (fascin1 [4]; 1 mM compound, 2 μM fascin1, HEX filter, read-out: ΔTm, HEX): 2 °C | Tm, TRed (fascin1 [4]; 1 mM compound, 2 μM fascin1, T-Red filter): 58.0 ± 0.0 °C | ΔTm at 1000 µM (fascin1 [4]; 1 mM compound, 2 μM fascin1, T-Red filter, read-out: ΔTm, TRed): 1.8 ± 0.6 °C | increase in Tm (fascin1 [4]; text summary over filters): about 2 °C | inhibition of migration ([1]; 20 μM, p<0.05): remarkable inhibition of migration | Migration (%) [1]: 43.25% | HCT-116 cell invasive ability (transwell) (HCT116 cells): inhibit tumor cell migration | inhibition of migration ([2]; 20 μM, p<0.05): remarkable inhibition of migration | Migration (%) [2]: 77.52% | Kd (fascin1 [5]): 390 µM | filopodia lamellipodium formation (HCT116 cell line): absent | Lamellipodia protrusion number (HCT116 cell line): significantly lower | area of invasion [6]: inhibits | depth of invasion [6]: inhibits | cell invasion in zebra fish larvae [7]: diminishing cell invasion is evident | Migration (%) [3]: 23.21% | inhibition of migration ([3]; DLD-1, 20 μM, p<0.05): remarkable inhibition of migration
